According to patent US7582610B2, “Melanocortin receptor templates, peptides and use thereof” (priority 2003, dated 2009):
Where a SMILES comes first, the peptide text is derived from it. Bridges are numbered along the chain shown (N, C = ends). [ ]: non-standard residue; d: D form. Nle = CCCC[C@H](N)C(=O)O; Dap = NC[C@H](N)C(=O)O

How the values were obtained:
[1] = target: T1, mMC4R (Mus musculus, UniProt P56450); test: Receptor binding study, competitive displacement of 125I-NDP-MSH at mMC4R; design: expressed in transfected cells; details: peptide at 10 μM
T1 sequence (P56450 whole entry): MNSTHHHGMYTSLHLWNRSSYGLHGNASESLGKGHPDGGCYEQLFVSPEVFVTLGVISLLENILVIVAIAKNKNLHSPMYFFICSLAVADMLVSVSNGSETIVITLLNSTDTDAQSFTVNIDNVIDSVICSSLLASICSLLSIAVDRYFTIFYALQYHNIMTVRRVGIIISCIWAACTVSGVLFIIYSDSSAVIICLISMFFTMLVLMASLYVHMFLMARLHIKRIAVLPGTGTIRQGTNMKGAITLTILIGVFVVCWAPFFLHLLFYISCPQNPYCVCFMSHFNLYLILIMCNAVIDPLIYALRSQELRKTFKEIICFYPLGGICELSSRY

[2] = target: T2, mMC3R (Mus musculus, UniProt P33033); test: Functional bioassay, CRE/β-galactosidase reporter in HEK-293 cells stably expressing mMC3R; details: for pharmacology in words at mMC3R: slight agonist = some stimulatory response at 100 μM, not enough to determine an EC50
T2 sequence (P33033 whole entry): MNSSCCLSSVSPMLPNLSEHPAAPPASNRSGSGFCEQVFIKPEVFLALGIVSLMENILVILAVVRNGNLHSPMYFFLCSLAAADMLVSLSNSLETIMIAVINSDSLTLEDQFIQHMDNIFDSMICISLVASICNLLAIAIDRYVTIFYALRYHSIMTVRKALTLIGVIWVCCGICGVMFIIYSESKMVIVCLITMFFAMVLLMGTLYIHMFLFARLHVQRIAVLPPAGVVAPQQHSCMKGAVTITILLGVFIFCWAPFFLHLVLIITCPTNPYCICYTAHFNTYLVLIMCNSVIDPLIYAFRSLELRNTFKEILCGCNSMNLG
Description: (§1) 5,000 to 15,000 post transfection cells were plated into 96 well Primera plates (Falcon) and incubated overnight. […] The assay media was aspirated and 50 μL of lysis buffer (250 mM Tris-HCl pH=8.0 and 0.1% Triton X-100) was added. The plates were stored at −80° overnight.
(§2) The plates containing the cell lysates were thawed the following day. Aliquots of 10 μL were taken from each well and transferred to another 96-well plate for relative protein determination. To the cell lysate plates, 40 μL phosphate-buffered saline with 0.5% BSA was added to each well. Subsequently, 150 μL substrate buffer (60 mM sodium phosphate, 1 mM MgCl2, 10 mM KCl, 5 mM β-mercaptoethanol, 200 mg/100 mL ONPG) was added to each well and the plates were incubated at 37°.
(§3) The sample absorbance, OD405, was measured using a 96 well plate reader (Molecular Devices). The relative protein was determined by adding 200 μL 1:5 dilution Bio Rad G250 protein dye:water to the 10 μL cell lysate sample taken previously, and the OD595 was measured on a 96 well plate reader (Molecular Devices). Data points were normalized both to the relative protein content and non-receptor dependent forskolin stimulation.
(§4) For data analysis, EC50 and pA2 values represent the mean of duplicate experiments performed in triplet, quadruplet or more independent experiments.

[3] = target: mMC1R (Mus musculus, UniProt Q01727); test: Functional bioassay, CRE/β-galactosidase reporter in HEK-293 cells stably expressing mMC1R; details: for pharmacology in words at mMC1R: slight agonist = some stimulatory response at 100 μM, not enough to determine an EC50
Chain of mMC1R (Q01727 whole entry): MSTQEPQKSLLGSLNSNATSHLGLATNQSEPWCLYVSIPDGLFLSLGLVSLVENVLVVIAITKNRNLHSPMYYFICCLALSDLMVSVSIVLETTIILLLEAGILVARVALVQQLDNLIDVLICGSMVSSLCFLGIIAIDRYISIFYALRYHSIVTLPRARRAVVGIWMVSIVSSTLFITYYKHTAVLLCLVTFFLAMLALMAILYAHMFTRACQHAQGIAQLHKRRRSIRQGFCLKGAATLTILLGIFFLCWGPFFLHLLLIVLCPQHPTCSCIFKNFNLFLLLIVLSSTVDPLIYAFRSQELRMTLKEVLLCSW
Description: as §1, §2, §3, §4

[4] = target: T1, mMC4R; test: Functional bioassay, CRE/β-galactosidase reporter in HEK-293 cells stably expressing mMC4R
Description: as §1, §2, §3, §4

[5] = target: mMC5R (Mus musculus, UniProt P41149); test: Functional bioassay, CRE/β-galactosidase reporter in HEK-293 cells stably expressing mMC5R; details: for pharmacology in words at mMC5R: slight agonist = some stimulatory response at 100 μM, not enough to determine an EC50
Chain of mMC5R (P41149 whole entry): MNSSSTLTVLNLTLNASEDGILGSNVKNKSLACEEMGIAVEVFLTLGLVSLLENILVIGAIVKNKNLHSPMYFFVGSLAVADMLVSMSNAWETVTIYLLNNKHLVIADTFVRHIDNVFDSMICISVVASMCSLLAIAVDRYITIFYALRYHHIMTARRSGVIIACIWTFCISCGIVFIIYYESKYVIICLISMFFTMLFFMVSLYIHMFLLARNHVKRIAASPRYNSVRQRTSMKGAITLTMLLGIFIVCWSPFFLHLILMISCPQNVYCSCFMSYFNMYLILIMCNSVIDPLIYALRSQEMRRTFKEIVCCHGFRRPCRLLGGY
Description: as §1, §2, §3, §4

[6] = target: T2, mMC3R; test: Receptor binding study, competitive displacement of 125I-NDP-MSH at mMC3R; design: expressed in transfected cells; details: peptide at 10 μM

Compound | EC50 [2] | pharmacology in words at mMC1R [3] | EC50 [4] | EC50 [3] | EC50 [5] | pharmacology in words at mMC3R [2] | specific binding at mMC3R (displacement of 125I-NDP-MSH) [6] | further results
CCCC[C@H](NC(=O)[C@H](CO)NC(=O)[C@H](Cc1ccc(O)cc1)NC(=O)[C@H](CO)NC(C)=O)C(=O)N[C@@H](CCC(=O)O)C(=O)N[C@@H](Cc1c[nH]cn1)C(=O)N[C@@H](CCCNC(=N)N)C(=O)N[C@H](Cc1ccccc1)C(=O)N[C@@H](Cc1ccccc1)C(=O)NCC(=O)N[C@@H](CCCCN)C(=O)N1CCC[C@H]1C(=O)N[C@H](C(N)=O)C(C)C [SEQ ID NO: 17, Ac-Ser-Tyr-Ser-Nle-Glu-His-Arg-DPhe-Phe-Gly-Lys-Pro-Val] (Ac-SYS[Nle]EHR[dF]FGKPV-NH2) | – | – | – | – | – | – | – | specific binding at mMC4R (displacement of 125I-NDP-MSH) [1]: ≤ 25%; decreased mMC3R agonist potency ([2]; compared with SEQ ID NO:15): 13 fold; MC1R versus MC3R selective ([3]; agonist EC50 ratio): 850 fold; MC1R versus MC5R selective ([3]; agonist EC50 ratio): 62 fold; increase in mMC1R agonist potency ([3]; compared with SEQ ID NO:15): 8 fold; pharmacology in words at mMC4R ([4]; slight agonist = some stimulatory response at 100 μM, not enough to determine an EC50): Slight agonist
CCCC[C@H](NC(=O)[C@H](CO)NC(=O)[C@H](Cc1ccc(O)cc1)NC(=O)[C@H](CO)NC(C)=O)C(=O)N[C@@H](CCC(=O)O)C(=O)N[C@@H](Cc1c[nH]cn1)C(=O)N[C@H](CCCNC(=N)N)C(=O)N[C@@H](Cc1ccccc1)C(=O)N[C@@H](Cc1ccccc1)C(=O)NCC(=O)N[C@@H](CCCCN)C(=O)N1CCC[C@H]1C(=O)N[C@H](C(N)=O)C(C)C [SEQ ID NO: 16, Ac-Ser-Tyr-Ser-Nle-Glu-His-DArg-Phe-Phe-Gly-Lys-Pro-Val] (Ac-SYS[Nle]EH[dR]FFGKPV-NH2) | > 100 µM | Slight agonist | > 100 µM | – | – | – | – | pharmacology in words at mMC5R [5]: Slight agonist
CCCC[C@H](NC(C)=O)C(=O)N[C@H]1CC(=O)NCCCC[C@@H](C(N)=O)NC(=O)[C@H](Cc2ccccc2)NC(=O)[C@H](Cc2ccccc2)NC(=O)[C@@H](CCCNC(=N)N)NC(=O)[C@H](Cc2c[nH]cn2)NC1=O [SEQ ID NO: 21, Ac-Nle-c[Asp-His-DArg-Phe-Phe-Lys]] (Ac-[Nle]DH[dR]FFK-NH2; lactam 2-7) | > 100 µM | – | > 100 µM | > 100 µM | > 100 µM | – | – | –
CCCC[C@H](NC(C)=O)C(=O)N[C@H]1CC(=O)NCCCC[C@@H](C(N)=O)NC(=O)[C@H](Cc2ccccc2)NC(=O)[C@H](Cc2ccccc2)NC(=O)[C@H](CCCNC(=N)N)NC(=O)[C@H](Cc2c[nH]cn2)NC1=O [SEQ ID NO: 20, Ac-Nle-c[Asp-His-Arg-Phe-Phe-Lys]] (Ac-[Nle]DHRFFK-NH2; lactam 2-7; C-terminus assumed) | > 100 µM | Partial agonist | > 100 µM | – | > 100 µM | – | – | –
CCCC[C@H](NC(=O)[C@H](CO)NC(=O)[C@H](Cc1ccc(O)cc1)NC(=O)[C@H](CO)NC(C)=O)C(=O)N[C@@H](CCC(=O)O)C(=O)N[C@@H](Cc1c[nH]cn1)C(=O)N[C@@H](Cc1ccccc1)C(=O)N[C@@H](Cc1ccccc1)C(=O)N[C@@H](CCCNC(=N)N)C(=O)NCC(=O)N[C@@H](CCCCN)C(=O)N1CCC[C@H]1C(=O)N[C@H](C(N)=O)C(C)C [SEQ ID NO: 14] (Ac-SYS[Nle]EHFFRGKPV-NH2) | – | Partial agonist | > 100 µM | – | – | Partial agonist | – | pharmacology in words at mMC5R [5]: Partial agonist
CCCC[C@H](NC(=O)[C@H](CO)NC(=O)[C@H](Cc1ccc(O)cc1)NC(=O)[C@H](CO)NC(C)=O)C(=O)N[C@@H](CCC(=O)O)C(=O)N[C@@H](Cc1c[nH]cn1)C(=O)N[C@@H](C)C(=O)N[C@@H](C)C(=O)N[C@@H](C)C(=O)NCC(=O)N[C@@H](CCCCN)C(=O)N1CCC[C@H]1C(=O)N[C@H](C(N)=O)C(C)C [SEQ ID NO: 12] (Ac-SYS[Nle]EHAAAGKPV-NH2) | > 100 µM | – | > 100 µM | > 100 µM | > 100 µM | – | ≤ 25% | –
C[C@@H]1NC(=O)[C@H](CC(N)=O)NC(=O)[C@H](Cc2c[nH]c3ccccc23)NC(=O)[C@H](CCCNC(=N)N)NC(=O)[C@@H](Cc2ccccc2)NC(=O)[C@@H](NC(=O)[C@@H](N)Cc2ccc(O)cc2)CC(=O)NC[C@@H](C(=O)N[C@@H](Cc2ccc(O)cc2)C(N)=O)NC(=O)[C@H](Cc2ccccc2)NC1=O [SEQ ID NO: 7, Tyr-c[Asp-DPhe-Arg-Trp-Asn-Ala-Phe-Dpr]-Tyr] (H-YD[dF]RWNAF[Dap]Y-NH2; lactam 2-9) | – | – | 0.45 µM | – | – | Slight agonist | ≤ 25% | MC4R versus MC3R selective ([4]; agonist EC50 ratio): > 200 fold
C[C@@H]1NC(=O)[C@H](CC(N)=O)NC(=O)[C@H](Cc2ccccc2)NC(=O)[C@H](Cc2ccccc2)NC(=O)[C@H](CCCNC(=N)N)NC(=O)[C@H](Cc2c[nH]cn2)NC(=O)[C@@H](NC(=O)[C@@H](N)Cc2ccc(O)cc2)CC(=O)NC[C@@H](C(=O)N[C@@H](Cc2ccc(O)cc2)C(N)=O)NC(=O)[C@H](Cc2ccccc2)NC1=O [SEQ ID NO: 8] (H-YDHRFFNAF[Dap]Y-NH2; lactam 2-10) | – | – | – | – | – | Slight agonist | less than 50% | specific binding at mMC4R (displacement of 125I-NDP-MSH) [1]: less than 50%; decreased mMC1R agonist potency ([3]; compared with SEQ ID NO:3): 8 fold
CCCC[C@H](NC(C)=O)C(=O)N[C@H]1CC(=O)NCCCC[C@@H](C(N)=O)NC(=O)[C@H](C)NC(=O)[C@H](C)NC(=O)[C@H](C)NC(=O)[C@H](Cc2c[nH]cn2)NC1=O [SEQ ID NO: 19, Ac-Nle-c[Asp-His-Ala-Ala-Ala-Lys]] (Ac-[Nle]DHAAAK-NH2; lactam 2-7) | > 100 µM | – | > 100 µM | > 100 µM | > 100 µM | – | – | –
